According to patent US20240190891A1, “PYRIDO OXAZINE AMINO DERIVATIVES AS ALK5 INHIBITORS” (CHIESI FARMACEUTICI S.P.A., priority 2020, published 2024):

biological target: T1, human ALK5 (Homo sapiens, UniProt P36897); experiment: ADP-GLO Kinases assay, inhibitory activity on ALK5; assay type: biochemical; settings: Table 10; purified recombinant human ALK5 2.6 nM, ADP-Glo, 25° C., 150 min incubation
T1 construct: human ALK5 (recombinant TGF β1 N-term GST-tagged, 80-end); GST (N); purchased
T1 sequence (P36897 80-503 limits assumed): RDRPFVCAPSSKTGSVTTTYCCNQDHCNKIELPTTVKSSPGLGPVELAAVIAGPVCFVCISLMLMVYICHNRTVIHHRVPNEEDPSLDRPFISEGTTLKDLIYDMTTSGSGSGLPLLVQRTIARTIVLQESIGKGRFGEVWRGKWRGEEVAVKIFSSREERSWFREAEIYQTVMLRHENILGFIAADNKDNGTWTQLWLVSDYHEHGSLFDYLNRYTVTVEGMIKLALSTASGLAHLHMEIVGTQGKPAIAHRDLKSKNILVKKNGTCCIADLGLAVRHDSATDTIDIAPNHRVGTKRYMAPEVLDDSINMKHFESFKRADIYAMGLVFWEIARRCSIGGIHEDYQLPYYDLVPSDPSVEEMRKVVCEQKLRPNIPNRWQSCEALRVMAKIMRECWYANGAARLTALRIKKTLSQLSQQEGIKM
Procedure: The enzymatic activity of compounds of the present invention was monitored measuring the formation of ADP using the ADP-GLO Kinases assay. Following the incubation of the purified enzyme, a substrate and ATP, the produced ADP was converted into ATP, which in turn was converted into light by Ultra-Glo Luciferase. The luminescent signal positively correlated with ADP amount and kinase activity. Briefly, the kinase reaction was performed by incubating 2.6 nM of the purified, commercially available human ALK5 (recombinant TGF β1 N-term GST-tagged, 80-end), a final concentration of TGFβ1 peptide 94.5 μM (Promega, T36-58) and ultra-pure ATP (Promega V915B). The ATP concentration was set at the Km value (concentration of substrate which permits the enzyme to achieve half maximal velocity (Vmax)) of ALK5 (5 μM). All reactions/incubations were performed at 25° C. Compound and ALK5 kinase were mixed and incubated for 15 mins. Reactions were initiated by addition of ATP at a final concentration in the assay of 0.83 μM. After an incubation of 150 min, the reaction was stopped, and ADP production detected with ADP-Glo kit according to manufacturer's indications. The assay was performed in 384-well format and was validated using a selection of reference compounds that was tested in 11 point concentration-response curve.
Compounds of the examples C1, C2 and C3 were tested in the same in vitro assay described above.

| Structure (SMILES) | IC50 |
| --- | --- |
| CNCCNC(=O)c1cnccc1Nc1cc(-c2cc(Cl)ccc2F)nc2c1OCCN2 [Example 21, 4-{[6-(5-chloro-2-fluorophenyl)-2H,3H,4H-pyrido[3,2-b][1,4]oxazin-8-yl]amino}-N-[2-(methylamino)ethyl]pyridine-3-carboxamide] | < 1 nM |
| Nc1cnccc1Nc1cc(-c2cc(Cl)ccc2F)nc2c1OCCN2 [Example 7, N4-[6-(5-chloro-2-fluorophenyl)-2H,3H,4H-pyrido[3,2-b][1,4]oxazin-8-yl]pyridine-3,4-diamine] | 1 to 5 nM |
| COC(=O)c1cc2c(Nc3cc(-c4cc(Cl)ccc4F)nc4c3OCCN4)ccnc2[nH]1 [Example 38, methyl 4-{[6-(5-chloro-2-fluorophenyl)-2H,3H,4H-pyrido[3,2-b][1,4]oxazin-8-yl]amino}-1H-pyrrolo[2,3-b]pyridine-2-carboxylate] | < 1 nM |
| Fc1ccc(Cl)cc1-c1cc(Nc2ccnc3[nH]ccc23)c2c(n1)NCCO2 [Example 31, 6-(5-chloro-2-fluorophenyl)-N-{1H-pyrrolo[2,3-b]pyridin-4-yl}-2H,3H,4H-pyrido[3,2-b][1,4]oxazin-8-amine] | < 1 nM |
| O=C(NC1CCNCC1)c1cnccc1Nc1cc(-c2cc(Cl)ccc2F)nc2c1OCCN2 [Example 24, 4-{[6-(5-chloro-2-fluorophenyl)-2H,3H,4H-pyrido[3,2-b][1,4]oxazin-8-yl]amino}-N-(piperidin-4-yl)pyridine-3-carboxamide] | < 1 nM |
| O=C(NCCN(CCO)CCO)c1cnccc1Nc1cc(-c2cc(Cl)ccc2F)nc2c1OCCN2 [Example 37, N-{2-[bis(2-hydroxyethyl)amino]ethyl}-4-{[6-(5-chloro-2-fluorophenyl)-2H,3H,4H-pyrido[3,2-b][1,4]oxazin-8-yl]amino}pyridine-3-carboxamide] | < 1 nM |
| Cc1ccc(F)c(-c2cc(Nc3ccncc3)c3c(n2)NCCO3)c1 [Example 8, N-[6-(2-fluoro-5-methylphenyl)-2H,3H,4H-pyrido[3,2-b][1,4]oxazin-8-yl]pyridin-4-amine] | < 1 nM |
| O=C(NC1CC1)c1cnccc1Nc1cc(-c2cc(Cl)ccc2F)nc2c1OCCN2 [Example 23, 4-{[6-(5-chloro-2-fluorophenyl)-2H,3H,4H-pyrido[3,2-b][1,4]oxazin-8-yl]amino}-N-cyclopropylpyridine-3-carboxamide] | < 1 nM |
| Fc1ccc(-c2cc(Nc3ccncc3)c3c(n2)NCCO3)cc1Cl [Example 19, N-[6-(3-chloro-4-fluorophenyl)-2H,3H,4H-pyrido[3,2-b][1,4]oxazin-8-yl]pyridin-4-amine] | 5 to 10 nM |
| Cc1cccc(-c2cc(Nc3ccnc4[nH]ncc34)c3c(n2)NCCO3)n1 [Example 41, 6-(6-methylpyridin-2-yl)-N-{1H-pyrazolo[3,4-b]pyridin-4-yl}-2H,3H,4H-pyrido[3,2-b][1,4]oxazin-8-amine] | < 1 nM |
| O=C(O)c1cnccc1Nc1cc(-c2cc(Cl)ccc2F)nc2c1OCCN2 [Example 16, lithium 4-{[6-(5-chloro-2-fluorophenyl)-2H,3H,4H-pyrido[3,2-b][1,4]oxazin-8-yl]amino}pyridine-3-carboxylate] | < 1 nM |
| Cc1csc(-c2cc(Nc3ccncc3)c3c(n2)NCCO3)n1 [Example 4, N-[6-(4-methyl-1,3-thiazol-2-yl)-2H,3H,4H-pyrido[3,2-b][1,4]oxazin-8-yl]pyridin-4-amine] | 5 to 10 nM |
| CN1CCC(NC(=O)c2cnccc2Nc2cc(-c3cc(Cl)ccc3F)nc3c2OCCN3)CC1 [Example 32, 4-{[6-(5-chloro-2-fluorophenyl)-2H,3H,4H-pyrido[3,2-b][1,4]oxazin-8-yl]amino}-N-(1-methylpiperidin-4-yl)pyridine-3-carboxamide] | < 1 nM |
| CN(C)CCOC(=O)c1cnccc1Nc1cc(-c2cc(Cl)ccc2F)nc2c1OCCN2 [Example 27, 2-(dimethylamino)ethyl 4-{[6-(5-chloro-2-fluorophenyl)-2H,3H,4H-pyrido[3,2-b][1,4]oxazin-8-yl]amino}pyridine-3-carboxylate] | 1 to 5 nM |
| Cc1cccc(-c2cc(Nc3ccnc4[nH]ccc34)c3c(n2)NCCO3)n1 [Example 45, 6-(6-methylpyridin-2-yl)-N-{1H-pyrrolo[2,3-b]pyridin-4-yl}-2H,3H,4H-pyrido[3,2-b][1,4]oxazin-8-amine] | < 1 nM |
| CC(C)NC(=O)c1cnccc1Nc1cc(-c2cc(Cl)ccc2F)nc2c1OCCN2 [Example 22, 4-{[6-(5-chloro-2-fluorophenyl)-2H,3H,4H-pyrido[3,2-b][1,4]oxazin-8-yl]amino}-N-(propan-2-yl)pyridine-3-carboxamide] | 1 to 5 nM |
| CN(C)CCC(=O)Nc1cnccc1Nc1cc(-c2cc(Cl)ccc2F)nc2c1OCCN2 [Example 39, N-(4-{[6-(5-chloro-2-fluorophenyl)-2H,3H,4H-pyrido[3,2-b][1,4]oxazin-8-yl]amino}pyridin-3-yl)-3-(dimethylamino)propanamide] | 5 to 10 nM |
| Cc1cccc(-c2cc(Nc3ccncc3C(=O)NC3CCN(C)CC3)c3c(n2)NCCO3)n1 [Example 42, N-(1-methylpiperidin-4-yl)-4-{[6-(6-methylpyridin-2-yl)-2H,3H,4H-pyrido[3,2-b][1,4]oxazin-8-yl]amino}pyridine-3-carboxamide] | 1 to 5 nM |
| Fc1ccc(F)c(-c2cc(Nc3ccncc3)c3c(n2)NCCO3)c1 [Example 14, N-[6-(2,5-difluorophenyl)-2H,3H,4H-pyrido[3,2-b][1,4]oxazin-8-yl]pyridin-4-amine] | 1 to 5 nM |
| CN(C)CCC(=O)Nc1cc(Nc2cc(-c3cc(Cl)ccc3F)nc3c2OCCN3)ccn1 [Example 34, N-(4-{[6-(5-chloro-2-fluorophenyl)-2H,3H,4H-pyrido[3,2-b][1,4]oxazin-8-yl]amino}pyridin-2-yl)-3-(dimethylamino)propanamide] | < 1 nM |
| O=C(NCCN1CCNCC1)c1cnccc1Nc1cc(-c2cc(Cl)ccc2F)nc2c1OCCN2 [Example 12, 4-{[6-(5-chloro-2-fluorophenyl)-2H,3H,4H-pyrido[3,2-b][1,4]oxazin-8-yl]amino}-N-[2-(piperazin-1-yl)ethyl]pyridine-3-carboxamide] | < 1 nM |
| COC(=O)c1cnccc1Nc1cc(-c2cc(Cl)ccc2F)nc2c1OCCN2 [Example 17, methyl 4-{[6-(5-chloro-2-fluorophenyl)-2H,3H,4H-pyrido[3,2-b][1,4]oxazin-8-yl]amino}pyridine-3-carboxylate] | < 1 nM |
| CNC(=O)c1cc(Nc2cc(-c3cc(Cl)ccc3F)nc3c2OCCN3)ccn1 [Example 6, 4-{[6-(5-chloro-2-fluorophenyl)-2H,3H,4H-pyrido[3,2-b][1,4]oxazin-8-yl]amino}-N-methylpyridine-2-carboxamide] | 5 to 10 nM |
| CN1CCN(CCNC(=O)c2cnccc2Nc2cc(-c3cc(Cl)ccc3F)nc3c2OCCN3)CC1 [Example 28, 4-{[6-(5-chloro-2-fluorophenyl)-2H,3H,4H-pyrido[3,2-b][1,4]oxazin-8-yl]amino}-N-[2-(4-methylpiperazin-1-yl)ethyl]pyridine-3-carboxamide] | 1 to 5 nM |

same assay, conditions: Table 11, comparative examples; same in vitro assay

| Structure (SMILES) | IC50 |
| --- | --- |
| Oc1ccc(-c2cc(-c3cc(Cl)ccc3F)nc3c2OCCN3)cc1 [Example C2, 4-[6-(5-chloro-2-fluorophenyl)-2H,3H,4H-pyrido[3,2-b][1,4]oxazin-8-yl]phenol, reference compound] | 1700 nM |
